# Results taken from ChEMBL document CHEMBL1125233, “2,4-Diamino-5-benzylpyrimidines as antibacterial agents. 14. 2,3-Dihydro-1-(2,4-diamino-5-pyrimidyl)-1H-indenes as conformationally restricted analogues of trimethoprim” (J Med Chem, 1991).
# Tests used:
# Dihydrofolate reductase [1] = target: T1, Dihydrofolate reductase (Rattus norvegicus, UniProt Q920D2); experiment: Inhibitory activity against rat liver dihydrofolate reductase at 10e8 M; details: read-out: I50
# T1 sequence (Q920D2 whole entry): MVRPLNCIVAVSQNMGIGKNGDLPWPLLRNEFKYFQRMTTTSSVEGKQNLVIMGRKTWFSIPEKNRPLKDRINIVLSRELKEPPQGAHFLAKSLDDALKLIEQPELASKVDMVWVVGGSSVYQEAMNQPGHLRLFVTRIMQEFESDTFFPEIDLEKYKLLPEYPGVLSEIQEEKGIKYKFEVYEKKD
# Dihydrofolate reductase [2] = target: Dihydrofolate reductase (Neisseria gonorrhoeae, UniProt P04174); experiment: Inhibitory activity against Neisseria gonorrhoeae dihydrofolate reductase at 10e8 M; details: read-out: I50
# Dihydrofolate reductase (Neisseria gonorrhoeae, UniProt P04174), sequence (P04174 whole entry): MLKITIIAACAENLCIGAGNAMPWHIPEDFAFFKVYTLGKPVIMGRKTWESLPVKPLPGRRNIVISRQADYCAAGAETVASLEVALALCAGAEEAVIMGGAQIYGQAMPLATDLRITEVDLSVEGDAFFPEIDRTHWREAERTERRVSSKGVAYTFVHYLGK
IC50 (Dihydrofolate reductase [1]) [µM],IC50 (Dihydrofolate reductase [2]) [µM],SMILES
410,9.7,COc1cc2c(cc1OC)C(c1cnc(N)nc1N)CC2 (stereo not drawn)
70,,COc1ccc(Cc2cnc(N)nc2N)cc1OC [DIAVERIDINE]
